# Measured values as given in paper PMC10097024, “Cytotoxic and Antibacterial Prenylated Acylphloroglucinols from Hypericum olympicum L” (Plants, 2023).
# How the values were obtained:
# HL-60 = experiment: Antiproliferative test (NCI methodology); assay type: cell-based, human; conditions: for TGI: HL-60, total growth inhibition; for GI50: HL-60, MTT readout
# Description: (§1) The group of human cell lines used in this study were represented by the tumor cell lines MDA-MB (breast carcinoma), EJ (urinary bladder carcinoma), K-562 (chronic myeloid leukemia), HL-60 (acute pre-myeloid leukemia), HL-60/DOX (multi-drug resistant HL-60 cell line, with over expression of MRP-1) and the non-tumorigenic cell lines HEK-293 (embryonic kidney cells) and EA.hy926 (vascular endothelial cells). EJ, HL60 and EA.hy926 were purchased from American Type Culture Collection (ATCC) (Manassas, Virginia). The other cell lines were purchased from the German Collection of Microorganisms and Cell Cultures (DSMZ GmbH, Braunschweig, Germany). HL-60/DOX cell lines were generated by periodically treating HL-60 cells with anthracyclins. The conditions in which the cell culture flasks were maintained were as follows: 37 °C in an incubator “BB 16-Function Line” Heraeus (Kendro, Hanau, Germany) with 5% CO2 humidified atmosphere. The growth medium was 90% RPMI-1640, supplemented with 10% FBS and 2 mM L-glutamine. MDA-MB-231, EJ, HEK-293 and EA.hy926 cells were maintained as adherent monolayer cultures while all the other (leukemic) cell lines were grown as suspension type cultures. Cells were maintained in log phase: the adherent cell lines were subjected to trypsinization 1–2 times a week and the leukemic cell lines were passaged 2–3 times a week by removing of part of the cellular suspension and substituting it with fresh medium.
# (§2) The test was performed according the methodology of National Cancer Institute (NCI), USA [116]. Briefly, cells were seeded into 96-well plates in the same way as for an MTT test and after 24 h, the absorption of one plate of each cell line was measured as in the MTT assay described above, to represent a measurement of the cell population at the time of drug-addition (Tz). The rest of the plates were treated with the tested compounds and the experiment for them continued as the MTT-method. Using the absorbance measurements [(Tz, untreated control growth (C) and test growth in the present of the compounds (Ti)], the percentage growth is calculated at each of the tested concentrations of the compounds. Percentage growth inhibition (GI) is calculated as GI%=Ti−Tz/C−Tz×100 for concentrations for which Ti ≥ Tz. For concentrations in which Ti < Tz it is calculated as GI%=Ti−Tz/Tz×100 . Two dose parameters are calculated for each experimental agent. Growth inhibition of 50% (GI50) is calculated from Ti−Tz/C−Tz×100=50 . This is the drug concentration resulting in a 50% reduction in the net protein increase (as measured by MTT-test) in control cells during the drug incubation. The drug concentration resulting in total growth inhibition (TGI) is calculated from Ti = Tz.
# K-562 = experiment: Antiproliferative test (NCI methodology); assay type: cell-based, human; conditions: for GI50: K-562, MTT readout; for TGI: K-562, total growth inhibition
# Description: as §1, §2
# K-562 cells = conditions: human leukemia cell line K-562, dissolved in DMSO; cited from earlier work
# SKW-3 = system: SKW-3; parameters: method as in PMID 26411018; conditions: human leukemia cell line SKW-3, dissolved in DMSO; cited from earlier work
# BV-173 = system: BV-173; parameters: method as in PMID 26411018; conditions: human leukemia cell line BV-173, dissolved in DMSO; cited from earlier work
# procaspase 9 = experiment: Western blot, procaspase 9; assay type: cell-based, human; conditions: MDA-MB-231 and HL60/DOX
# Method: Next, the samples were lysed on ice with a buffer containing 100 mM Tris–HCl at pH 8.0, 4% SDS, 20% glycerol, 1% Na3VO4, 200 mM dithiothreitol (DTT) (Sigma-Aldrich, St. Louis, MO, USA) and protease inhibitor (Roche, Basel, Switzerland). Then the cell lysate was boiled for 15 min and centrifuged at 13,000 rpm for 10 min at 4 °C. Before DTT addition, aliquot samples of 10 μL were taken from the lysates. Their protein concentrations were determined using a BCA protein assay kit (ThermoFisher Scientific, Waltham, MA, USA) after dilution 5× with H2O. Subsequently, the samples were subjected to denaturing SDS-PAGE electrophoresis and then transferred to PVDF membrane (Santa Cruz Biotechnology, USA). After this, the blots were fixed with blocking solution (5% w/v nonfat dried milk powder, dissolved in TBS) and incubated with specific primary antibodies: mouse procaspase-9 (sc-17784), mouse Bcl-2 (C-2, sc-7382) and mouse β-actin (sc-8432). The incubation was either overnight at 4 °C or for 150 min at room temperature. After washing, the membranes were incubated for 45 min with horseradish peroxidase conjugated secondary goat anti-mouse antibody (sc-2005) or mouse IgG kappa antibody (sc-516102) (Santa Cruz Biotechnology, Santa Cruz, CA, USA). […] This densitometry analysis of the blots was calculated by Quantity One software version 4.6.9 (Bio-Rad Laboratories, Hercules, CA, USA). […]
Compound,TGI (HL-60) [µM],GI50 (HL-60; Homo sapiens) [µM],"GI50 (K-562; Homo sapiens, K562) [µM]",TGI (K-562) [µM],IC50 (K-562 cells) [µM],IC50 (SKW-3) [µM],IC50 (BV-173) [µM],GI50 (HL-60) [µM],GI50 (K-562) [µM],degradation of the precursor caspase 9 (in words) (procaspase 9)
"CC(C)=CCC[C@]1(C)[C@@H](CC=C(C)C)C[C@]2(C)C(=O)C(CC=C(C)C)=C(O)[C@@]1(C(=O)C(C)C)C2=O [Compound 3, hyperpolyphyllirin/hyperibine J]",47.43,41.1,0.44,0.77,21.3,5.3,5.7,–,–,–
"(1R,5R,7S,8R)-4-hydroxy-5,8-dimethyl-3,7-bis(3-methylbut-2-en-1-yl)-1-(2-methylbutanoyl)-8-(4-methylpent-3-en-1-yl)bicyclo[3.3.1]non-3-ene-2,9-dione [Compound 4]",55.55,–,–,18.38,–,–,–,41.1,16,–
"CC(C)=CCC[C@]1(C)[C@@H](CC=C(C)C)C[C@H]2C(=O)[C@]1(C(=O)C(C)C)C(=O)C(CC=C(C)C)=C2O [Compound 5, (1S,5R,7S,8R)-4-hydroxy-1-isobutyryl-8-methyl-3,7-bis(3-methylbut-2-en-1-yl)-8-(4-methylpent-3-en-1-yl)bicyclo[3.3.1]non-3-ene-2,9-dione]",–,–,–,–,–,–,–,–,–,not any observed decrease
